Earlier results on one compound are cited in patent US6514531B1, “Controlled-release dosage forms comprising zolpidem or a salt thereof” (Sanofi-Synthelabo, priority 1998, dated 2003).

Each structure is given as a SMILES string.

Regarding `Cc1ccc(-c2nc3ccc(C)cn3c2CC(=O)N(C)C)cc1` [zolpidem], the “kinetics in the therapeutical dose range” value (between 5 and 10 mg in conventional forms) is recorded as “linear kinetics”. Under “hypnotic action, oral, conventional forms”, the duration of action result is on record as “up to 6 hours”.
